According to patent US10689414B2 (Agios Pharmaceuticals, Inc., priority 2013, dated 2020):

Test system: U87MG cells
Experiment: Cellular assay, inhibition of 2-HG production in U87MG cells
Format: cell-based
Conditions: Homo sapiens, U-87 MG, 48 h
In short: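 HT1080 or U87MG cells (U87MG kept with 500 ug/mL G418) seeded at 5000 cells/well and treated with compound at 0.2% final DMSO. Incubated 48 h at 37 °C. 2-HG inhibition determined by LC-MS. Viability read by CellTiter-Glo luminescence at 72 h post-dose.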

CCOC(=O)CN1CC(=O)N(c2cc(C#N)ccn2)[C@H](C(=O)N(c2cc(F)cc(F)c2)[C@H](C(=O)NC2CC(F)(F)C2)c2ccccc2Cl)C1 [Compound 104]
IC50: < 100 nM

N#Cc1ccnc(N2C(=O)CC[C@H]2C(=O)N(c2cc(F)ccc2F)[C@H](C(=O)NC2CC(F)(F)C2)c2ccccc2Cl)c1 [Compound 197, (S)—N—((S)-1-(2-Chlorophenyl)-2-((3,3-difluorocyclobutyl)amino)-2-oxoethyl)-1-(4-cyanopyridin-2-yl)-N-(2,5-difluorophenyl)-5-oxopyrrolidine-2-carboxamide]
IC50: < 100 nM

O=C(NC1CC(F)(F)C1)C(c1ccccc1Cl)N(C(=O)[C@@H]1CCCC(=O)N1c1ncccn1)c1cccc(F)c1 (stereo in doubt) [Compound 20, (S)—N—((R)-1-(2-Chloro-phenyl)-2-((3,3-difluorocyclobutyl)amino)-2-oxoethyl)-N-(3-fluoro-phenyl)-6-oxo-1-(pyrimidin-2-yl)piperidine-2-carboxamide]
IC50: 100 to 500 nM

O=C(NC1CC(F)(F)C1)[C@H](c1ccccc1Cl)N(C(=O)[C@@H]1CCC(=O)N1c1ccc(F)cn1)c1cccc(F)c1 [Compound 29]
IC50: < 100 nM

N#Cc1ccnc(N2C(=O)OC[C@H]2C(=O)N(c2cncc(F)c2)[C@H](C(=O)NC2CCC(F)(F)CC2)c2ccccc2Cl)c1 [Compound 132, (S)—N—((S)-1-(2-Chlorophenyl)-2-((4,4-difluorocyclohexyl)amino)-2-oxoethyl)-3-(4-cyanopyri-din-2-yl)-N-(5-fluoropyridin-3-yl)-2-oxooxazolidine-4-carboxamide]
IC50: < 100 nM

N#Cc1ccnc(N2C(=O)OC[C@H]2C(=O)N(c2cccc(F)c2)[C@H](C(=O)NC2CC(F)(F)C2)c2ccccc2Cl)c1 [Compound 77, (S)—N—((S)-1-(2-Chlorophenyl)-2-(3,3-difluorocyclobutylamino)-2-oxoethyl)-3-(4-cyanopyri-din-2-yl)-N-(3-fluorophenyl)-2-oxooxazolidine-4-carboxamide]
IC50: < 100 nM

N#Cc1ccnc(N2C(=O)[C@H](O)C[C@H]2C(=O)N(c2cc(F)cc(F)c2)[C@@H](C(=O)NC2CC(F)(F)C2)c2ccccc2Cl)n1 [Compound 116, (2S,4R)—N—((R)-1-(2-Chlorophenyl)-2-((3,3-difluorocyclobutyl)amino)-2-oxoethyl)-1-(4-cyanopyrimidin-2-yl)-N-(3,5-difluorophenyl)-4-hydroxy-5-oxopyrrolidine-2-carboxamide]
IC50: 100 to 500 nM

N#Cc1ccnc(N2C(=O)OCC[C@H]2C(=O)N(c2cc(F)cc(F)c2)[C@H](C(=O)NC2CCC(F)(F)CC2)c2ccccc2Cl)n1 [Compound 144, (S)—N—((S)-1-(2-Chlorophenyl)-2-((4,4-difluorocyclohexyl)amino)-2-oxoethyl)-3-(4-cyanopyrimidin-2-yl)-N-(3,5-difluorophenyl)-2-oxo-1,3-oxazinane-4-carboxamide]
IC50: < 100 nM

CS(=O)(=O)Nc1cccc(N(C(=O)[C@@H]2CCC(=O)N2c2cc(C#N)ccn2)[C@H](C(=O)NC2CC(F)(F)C2)c2ccccc2Cl)c1 [Compound 159, (S)—N—((S)-1-(2-Chlorophenyl)-2-(3,3-difluorocyclobutylamino)-2-oxoethyl)-1-(4-cyanopyridin-2-yl)-N-(3-(methylsulfonamido)phenyl)-5-oxopyrrolidine-2-carboxamide]
IC50: < 100 nM

N#Cc1ccnc(N2C(=O)[C@H](O)C[C@H]2C(=O)N(c2cccc(F)c2)[C@H](C(=O)NC2CCC(F)(F)CC2)c2ccccc2Cl)n1 [Compound 123, (2S,4R)—N—((S)-1-(2-Chlorophenyl)-2-((4,4-difluorocyclohexyl)amino)-2-oxoethyl)-1-(4-cyanopyrimidin-2-yl)-N-(3-fluorophenyl)-4-hydroxy-5-oxopyrrolidine-2-carboxamide]
IC50: < 100 nM

N#Cc1ccnc(N2C(=O)CC[C@H]2C(=O)N(c2cccc3[nH]ncc23)C(C(=O)NC2CC(F)(F)C2)c2ccccc2Cl)c1 (stereo partly drawn) [Compound 152, (2S)—N-(1-(2-Chlorophenyl)-2-((3,3-difluorocyclobutyl)amino)-2-oxoethyl)-1-(4-cyanopyridin-2-yl)-N-(1H-indazol-4-yl)-5-oxopyrrolidine-2-carboxamide]
IC50: < 100 nM
